Earlier results in patent US20040260072A1, “Hydrophilic, thiol-reactive cyanine dyes and conjugates thereof with biomolecules for fluorescence diagnosis” (priority 2003, published 2004).

Conditions: in DMSO; J Chem Eng Data 1977, 22, 379

For `CC1(C)C(/C=C/C=C/C=C/C=C2\N(CCCCS(=O)(=O)O)c3ccc4ccccc4c3C2(C)C)=[N+](CCCCS(=O)(=O)[O-])c2ccc3ccccc3c21` [Indocyanine Green], the “Fluorescence quantum yield Q” value is listed as 0.13.
